Source: patent publication US11896573B2, “Pharmaceutical compositions and pharmacokinetics of a gamma-hydroxybutyric acid derivative” (priority 2020, dated 2024)
“And” between values parts separate entries of the source, which are not always exact repeats. Equal values may be shown once. Read-outs that look alike come from different tables or passages of the source.

Tests used:
[1] = Multiple ascending dose study, plasma pharmacokinetics of Compound (1) and GHB; type: in vivo, human; conditions: for AUC(0-inf) / AUC(0-t) / Cmax / half-life / Tmax: human, plasma, oral; for Tmax: read-out: Compound (1) plasma Tmax, Median
Protocol: The plasma concentrations of Compound (1) and GHB in plasma in healthy human subjects were measured using liquid chromatography tandem mass-spectroscopy and evaluated using PHOENIX™ WINNONLIN® version 8.1 (Pharsight Corporation, USA) and MICROSOFT® EXCEL® (Microsoft Corporation, USA).
All randomized subjects who received Compound (1), with available pharmacokinetic (PK) data and without relevant deviations interfering with the PK evaluations, were included. Subjects who received only placebo were excluded from the PK population. In addition, the PK population was used for the summaries and analyses of all PK data.
A multiple ascending dose study was undertaken to evaluate the pharmacokinetics of multiple doses of Compound (1) in 3 cohorts of healthy subjects (with 8 subjects/cohort). Within each cohort, the subjects were randomized to receive Compound (1) or placebo at a ratio of 6:2 (active: placebo) for 7 days (or up to 9 days if the cohort included a titration period).
After fasting for at least 3 hours following a standard meal, subjects were randomized on Day 1 and the first dose of study drug (either target dose or titration dose) was administered. The first cohort of subjects (Cohort 8) received the second dose administration at approximately four hours after receiving the first dose. The subsequent […] cohorts (Cohorts 9 and 10) received only one dose per day.
For the first cohort (Cohort 8), the dose used was 6.0 g divided into two equal doses four hours apart for 7 days starting from Day 4 “Dose Day 1” to Day 10 “Dose Day 7”. Subsequent Cohorts 9, 10 received a single daily dose of 4.5 g and 6.0 g during the titration period (Day 1 for Cohort 9, Day 1 and Day 2 for Cohort 10, and after a titration period for 7 days starting from Day 4 “Dose Day 1” to Day 10 “Dose Day 7”. Cohort 11 was not conducted due to API availability.

[2] = Cohort 10 (6.0 g/day in a single dose), Dosing Day 10

CC(C)[C@H](N)C(=O)OCCCC(=O)O [Compound (1), 4-((L-valyl)oxy)butanoic acid]
Compound (1) CL/F, Mean [1, 2]: 395 L/h
Compound (1) CL/F, Median [1, 2]: 354 L/h
Compound (1) CL/F, Min [1, 2]: 284 L/h
Compound (1) plasma AUC0-inf, Max [1, 2]: 21.1 µg·h/mL
Compound (1) plasma AUC0-inf, Min [1, 2]: 10.4 µg·h/mL
Compound (1) plasma AUC0-tlast, Max [1, 2]: 21.1 µg·h/mL
Compound (1) plasma AUC0-tlast, Min [1, 2]: 10.4 µg·h/mL
Compound (1) plasma Cmax, Max [1, 2]: 24.5 µg/mL
Compound (1) plasma Cmax, Min [1, 2]: 11.7 µg/mL
Compound (1) plasma T1/2, Max [1, 2]: 31.2 min
Compound (1) plasma T1/2, Min [1, 2]: 17.4 min
AUC(0-inf) ([1]; 4.5 g/day, Cohort 9 (4.5 g/day in a single dose), Dosing Day 4, read-out: Compound (1) plasma AUC0-inf, Mean): 12 µg·h/mL
AUC(0-inf) ([1]; 4.5 g/day, Cohort 9 (4.5 g/day in a single dose), Dosing Day 4, read-out: Compound (1) plasma AUC0-inf, Median): 11.8 µg·h/mL
AUC(0-t) ([1]; 4.5 g/day, Cohort 9 (4.5 g/day in a single dose), Dosing Day 4, read-out: Compound (1) plasma AUC0-tlast, Mean): 11.3 µg·h/mL
AUC(0-t) ([1]; 4.5 g/day, Cohort 9 (4.5 g/day in a single dose), Dosing Day 4, read-out: Compound (1) plasma AUC0-tlast, Median): 11.7 µg·h/mL
Cmax ([1]; 4.5 g/day, Cohort 9 (4.5 g/day in a single dose), Dosing Day 4, read-out: Compound (1) plasma Cmax, Mean): 15.6 µg/mL
Cmax ([1]; 4.5 g/day, Cohort 9 (4.5 g/day in a single dose), Dosing Day 4, read-out: Compound (1) plasma Cmax, Median): 16.8 µg/mL
half-life ([1]; 4.5 g/day, Cohort 9 (4.5 g/day in a single dose), Dosing Day 4, read-out: Compound (1) plasma T1/2, Mean (converted)): 29.4 min
half-life ([1]; 4.5 g/day, Cohort 9 (4.5 g/day in a single dose), Dosing Day 4, read-out: Compound (1) plasma T1/2, Median (converted)): 32.4 min
AUC(0-inf) ([1]; 4.5 g/day, Cohort 9 (4.5 g/day in a single dose), Dosing Day 10, read-out: Compound (1) plasma AUC0-inf, Mean): 10.8 µg·h/mL
AUC(0-inf) ([1]; 4.5 g/day, Cohort 9 (4.5 g/day in a single dose), Dosing Day 10, read-out: Compound (1) plasma AUC0-inf, Median): 10.2 µg·h/mL
AUC(0-t) ([1]; 4.5 g/day, Cohort 9 (4.5 g/day in a single dose), Dosing Day 10, read-out: Compound (1) plasma AUC0-tlast, Mean): 10.7 µg·h/mL
AUC(0-t) ([1]; 4.5 g/day, Cohort 9 (4.5 g/day in a single dose), Dosing Day 10, read-out: Compound (1) plasma AUC0-tlast, Median): 10.1 µg·h/mL
Cmax ([1]; 4.5 g/day, Cohort 9 (4.5 g/day in a single dose), Dosing Day 10, read-out: Compound (1) plasma Cmax, Mean): 14.8 µg/mL
Cmax ([1]; 4.5 g/day, Cohort 9 (4.5 g/day in a single dose), Dosing Day 10, read-out: Compound (1) plasma Cmax, Median): 15.9 µg/mL
half-life ([1]; 4.5 g/day, Cohort 9 (4.5 g/day in a single dose), Dosing Day 10, read-out: Compound (1) plasma T1/2, Mean (converted)): 33.6 min
half-life ([1]; 4.5 g/day, Cohort 9 (4.5 g/day in a single dose), Dosing Day 10, read-out: Compound (1) plasma T1/2, Median (converted)): 33.6 min
AUC(0-inf) ([1]; 6 g/day, Cohort 8 (6.0 g/day divided into equal 2 doses), Dosing Day 4, read-out: Compound (1) plasma AUC0-inf, Mean): 14.5 µg·h/mL
AUC(0-inf) ([1]; 6 g/day, Cohort 8 (6.0 g/day divided into equal 2 doses), Dosing Day 4, read-out: Compound (1) plasma AUC0-inf, Median): 14.8 µg·h/mL
AUC(0-t) ([1]; 6 g/day, Cohort 8 (6.0 g/day divided into equal 2 doses), Dosing Day 4, read-out: Compound (1) plasma AUC0-tlast, Mean): 14.4 µg·h/mL
AUC(0-t) ([1]; 6 g/day, Cohort 8 (6.0 g/day divided into equal 2 doses), Dosing Day 4, read-out: Compound (1) plasma AUC0-tlast, Median): 14.8 µg·h/mL
Cmax ([1]; 6 g/day, Cohort 8 (6.0 g/day divided into equal 2 doses), Dosing Day 4, read-out: Compound (1) plasma Cmax, Mean): 12.1 µg/mL
Cmax ([1]; 6 g/day, Cohort 8 (6.0 g/day divided into equal 2 doses), Dosing Day 4, read-out: Compound (1) plasma Cmax, Median): 11.5 µg/mL
half-life ([1]; 6 g/day, Cohort 8 (6.0 g/day divided into equal 2 doses), Dosing Day 4, read-out: Compound (1) plasma T1/2, Mean (converted)): 31.8 min
half-life ([1]; 6 g/day, Cohort 8 (6.0 g/day divided into equal 2 doses), Dosing Day 4, read-out: Compound (1) plasma T1/2, Median (converted)): 16.2 min
AUC(0-inf) ([1]; 6 g/day, Cohort 8 (6.0 g/day divided into equal 2 doses), Dosing Day 10, read-out: Compound (1) plasma AUC0-inf, Mean): 14.9 µg·h/mL
AUC(0-inf) ([1]; 6 g/day, Cohort 8 (6.0 g/day divided into equal 2 doses), Dosing Day 10, read-out: Compound (1) plasma AUC0-inf, Median): 14.1 µg·h/mL
AUC(0-t) ([1]; 6 g/day, Cohort 8 (6.0 g/day divided into equal 2 doses), Dosing Day 10, read-out: Compound (1) plasma AUC0-tlast, Mean): 14.8 µg·h/mL
AUC(0-t) ([1]; 6 g/day, Cohort 8 (6.0 g/day divided into equal 2 doses), Dosing Day 10, read-out: Compound (1) plasma AUC0-tlast, Median): 14.1 µg·h/mL
Cmax ([1]; 6 g/day, Cohort 8 (6.0 g/day divided into equal 2 doses), Dosing Day 10, read-out: Compound (1) plasma Cmax, Mean): 11.5 µg/mL
Cmax ([1]; 6 g/day, Cohort 8 (6.0 g/day divided into equal 2 doses), Dosing Day 10, read-out: Compound (1) plasma Cmax, Median): 11.3 µg/mL
half-life ([1]; 6 g/day, Cohort 8 (6.0 g/day divided into equal 2 doses), Dosing Day 10, read-out: Compound (1) plasma T1/2, Mean (converted)): 20.4 min
half-life ([1]; 6 g/day, Cohort 8 (6.0 g/day divided into equal 2 doses), Dosing Day 10, read-out: Compound (1) plasma T1/2, Median (converted)): 16.8 min
AUC(0-inf) ([1]; 6 g/day, Cohort 10 (6.0 g/day in a single dose), Dosing Day 4, read-out: Compound (1) plasma AUC0-inf, Mean): 17.2 µg·h/mL
AUC(0-inf) ([1]; 6 g/day, Cohort 10 (6.0 g/day in a single dose), Dosing Day 4, read-out: Compound (1) plasma AUC0-inf, Median): 19 µg·h/mL
AUC(0-t) ([1]; 6 g/day, Cohort 10 (6.0 g/day in a single dose), Dosing Day 4, read-out: Compound (1) plasma AUC0-tlast, Mean): 17.1 µg·h/mL
AUC(0-t) ([1]; 6 g/day, Cohort 10 (6.0 g/day in a single dose), Dosing Day 4, read-out: Compound (1) plasma AUC0-tlast, Median): 18.9 µg·h/mL
Cmax ([1]; 6 g/day, Cohort 10 (6.0 g/day in a single dose), Dosing Day 4, read-out: Compound (1) plasma Cmax, Mean): 21.3 µg/mL
Cmax ([1]; 6 g/day, Cohort 10 (6.0 g/day in a single dose), Dosing Day 4, read-out: Compound (1) plasma Cmax, Median): 23.5 µg/mL
half-life ([1]; 6 g/day, Cohort 10 (6.0 g/day in a single dose), Dosing Day 4, read-out: Compound (1) plasma T1/2, Mean (converted)): 24.6 min
half-life ([1]; 6 g/day, Cohort 10 (6.0 g/day in a single dose), Dosing Day 4, read-out: Compound (1) plasma T1/2, Median (converted)): 24 min
AUC(0-inf) ([1]; 6 g/day, Cohort 10 (6.0 g/day in a single dose), Dosing Day 10, read-out: Compound (1) plasma AUC0-inf, Mean): 16.4 µg·h/mL
AUC(0-inf) ([1]; 6 g/day, Cohort 10 (6.0 g/day in a single dose), Dosing Day 10, read-out: Compound (1) plasma AUC0-inf, Median): 16.9 µg·h/mL
AUC(0-t) ([1]; 6 g/day, Cohort 10 (6.0 g/day in a single dose), Dosing Day 10, read-out: Compound (1) plasma AUC0-tlast, Mean): 16.3 µg·h/mL
AUC(0-t) ([1]; 6 g/day, Cohort 10 (6.0 g/day in a single dose), Dosing Day 10, read-out: Compound (1) plasma AUC0-tlast, Median): 16.8 µg·h/mL
Cmax ([1]; 6 g/day, Cohort 10 (6.0 g/day in a single dose), Dosing Day 10, read-out: Compound (1) plasma Cmax, Mean): 18.9 µg/mL
Cmax ([1]; 6 g/day, Cohort 10 (6.0 g/day in a single dose), Dosing Day 10, read-out: Compound (1) plasma Cmax, Median): 20 µg/mL
half-life ([1]; 6 g/day, Cohort 10 (6.0 g/day in a single dose), Dosing Day 10, read-out: Compound (1) plasma T1/2, Mean (converted)): 21.6 min
half-life ([1]; 6 g/day, Cohort 10 (6.0 g/day in a single dose), Dosing Day 10, read-out: Compound (1) plasma T1/2, Median (converted)): 21 min
Tmax ([1]; Cohort 8 (6.0 g/day divided into equal 2 doses), Dosing Day 4): 30 min
Tmax ([1]; Cohort 9 (4.5 g/day in a single dose), Dosing Day 4): 30 min
Purity (Area %) (pH 1.2): 99.25 Area % and 99.22 Area % and 98.95 Area %
Purity (Area %) (pH 4.5): 99.25 Area % and 99.05 Area % and 98.35 Area %
Purity (Area %) (pH 6.8): 99.08 Area % and 97.58 Area % and 93.14 Area %
Purity (Area %) (pH 7.4): 98.84 Area % and 95.74 Area % and 87.89 Area %
